Assay results as given in ChEMBL document CHEMBL3244369, “Synthesis and inhibition analysis of 2(4)-imino-4(2)-amino-2,4-dideoxyriboflavin, a dual antagonist of riboflavin and folinic acid” (J Med Chem, 1977).
Calls of active or inactive are those of the source. The calls are words filed in the database; no cut-off is given here.

Assays:
Type in all cases: functional
[1] = Antifolate activity against Lactobacillus leichmannii at 7 ug/ml
[2] = system: Lactobacillus leichmannii; test: Inhibition index, ratio of antifolate activity against Lactobacillus leichmannii in presence of 250 ug/ml of riboflavin to antifolate activity against Lactobacillus leichmannii absence of riboflavin
[3] = system: Lactobacillus leichmannii; test: Inhibition index, ratio of antifolate activity against Lactobacillus leichmannii in presence of 0.02 ug/ml of folinic acid to antifolate activity against Lactobacillus leichmannii absence of folinic acid
[4] = Antifolate activity against Lactobacillus leichmannii at 20 ug/ml
[5] = Antifolate activity against Lactobacillus leichmannii at 150 ug/ml in presence of 0.02 ug/ml of folinic acid and 250 ug/ml riboflavin
[6] = Antifolate activity against Lactobacillus leichmannii at 20 to 60 ug/ml in presence of 0.02 ug/ml of folinic acid

Cc1cc2nc3c(N)nc(=N)nc-3n(C[C@H](O)[C@H](O)[C@H](O)CO)c2cc1C
growth inhibition (GI) [1]: Active
Ratio [2]: 1.5
Ratio [3]: 6000
growth inhibition (GI) [4]: Active
growth inhibition (GI) [5]: inactive
growth inhibition (GI) [6]: inactive
